Experimental data from PMC6032158, “Structure–Activity Relationship of Piplartine and Synthetic Analogues against Schistosoma mansoni and Cytotoxicity to Mammalian Cells” (International Journal of Molecular Sciences, 2018).

Columns and labels:
[1] = tested on: murine fibroblast (NIH-3T3) cells; assay: MTT cytotoxicity assay in murine fibroblasts; type: cell-based; conditions: for effect on NIH-3T3 cell viability (in words): MTT, 24 h exposure, 25 to 800 µg/mL; for Emax at 800 µg/mL: Mus musculus, NIH3T3, 24 h, decrease in cell viability at the maximum concentration tested (800 μg/mL), NIH-3T3, 24 h
Description: Next, the medium was removed and various concentrations (25–800 µg/mL) of samples reconstituted in 3% DMSO were applied. DMSO (3%) was used as a control. The plates were incubated for 24 h. Next, 15 µL of MTT solution (5 mg/mL in phosphate buffer) was added to each well and the plates were incubated for 2 h. Medium was discarded and 100 µL of DMSO was added to each well. Absorbance was determined using a spectrophotometer with a microplate reader at 595 nm (Molecular Devices Corporation, Sunnyvale, CA, USA).

[2] = tested on: 49-day-old S. mansoni adult worms; assay: In vitro experiments with adult worms of S. mansoni (mortality, motor activity); type: cell-based, Schistosoma mansoni; conditions: for Dead Worms (%) F / Motor Activity Reduction (%) Significant F / Motor Activity Reduction (%) Slight F: female worms; for Dead Worms (%) M / Motor Activity Reduction (%) Significant M / Motor Activity Reduction (%) Slight M: male worms; for activity against S. mansoni adult worms (in words): analogues 50, 25, 10 and 5 μM, piplartine 5 and 10 μM, up to 96 h
Outline: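 BH-strain worm pairs recovered from hamsters 49 days post-infection, washed in RPMI 1640 with penicillin, streptomycin and amphotericin B, and cultured as mated pairs with or without drug for 96 h. Motor activity changes and death were scored by microscopy.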

[3] = tested on: mouse BALB/cN macrophage (J774A.1) cell line; assay: Cell viability by flow cytometry in macrophages; conditions: 24 h, 25, 100 and 400 µg/mL, vs DMEM control

## O=C(/C=C/c1ccc([N+](=O)[O-])cc1)N(C(=O)NC1CCCCC1)C1CCCCC1 [Compound 6B]
[1]
  effect on NIH-3T3 cell viability (in words): did not exert significant effects on mammalian cell viability at the tested concentrations
  Emax at 800 µg/mL: < 50%
[2]; 5 µM, 14 h
  Dead Worms (%) F: 0%
  Motor Activity Reduction (%) Significant F: 0%
  Motor Activity Reduction (%) Slight F: 0%
  Dead Worms (%) M: 0%
  Motor Activity Reduction (%) Significant M: 0%
  Motor Activity Reduction (%) Slight M: 0%
[2]; 5 µM, 48 h
  Dead Worms (%) F: 0%
  Motor Activity Reduction (%) Significant F: 0%
  Motor Activity Reduction (%) Slight F: 0%
  Dead Worms (%) M: 0%
  Motor Activity Reduction (%) Significant M: 0%
  Motor Activity Reduction (%) Slight M: 0%
[2]; 5 µM, 72 h
  Dead Worms (%) F: 0%
  Motor Activity Reduction (%) Significant F: 0%
  Motor Activity Reduction (%) Slight F: 0%
  Dead Worms (%) M: 0%
  Motor Activity Reduction (%) Significant M: 0%
  Motor Activity Reduction (%) Slight M: 0%
[2]; 5 µM, 96 h
  Dead Worms (%) F: 0%
  Motor Activity Reduction (%) Significant F: 0%
  Motor Activity Reduction (%) Slight F: 0%
  Dead Worms (%) M: 0%
  Motor Activity Reduction (%) Significant M: 0%
  Motor Activity Reduction (%) Slight M: 0%
[2]; 10 µM, 24 h
  Dead Worms (%) F: 0%
  Motor Activity Reduction (%) Significant F: 0%
  Motor Activity Reduction (%) Slight F: 0%
  Dead Worms (%) M: 0%
  Motor Activity Reduction (%) Significant M: 0%
  Motor Activity Reduction (%) Slight M: 0%
[2]; 10 µM, 48 h
  Dead Worms (%) F: 0%
  Motor Activity Reduction (%) Significant F: 0%
  Motor Activity Reduction (%) Slight F: 0%
  Dead Worms (%) M: 0%
  Motor Activity Reduction (%) Significant M: 0%
  Motor Activity Reduction (%) Slight M: 0%
[2]; 10 µM, 72 h
  Dead Worms (%) F: 0%
  Motor Activity Reduction (%) Significant F: 0%
  Motor Activity Reduction (%) Slight F: 0%
  Dead Worms (%) M: 0%
  Motor Activity Reduction (%) Significant M: 0%
  Motor Activity Reduction (%) Slight M: 0%
[2]; 10 µM, 96 h
  Dead Worms (%) F: 0%
  Motor Activity Reduction (%) Significant F: 0%
  Motor Activity Reduction (%) Slight F: 0%
  Dead Worms (%) M: 0%
  Motor Activity Reduction (%) Significant M: 0%
  Motor Activity Reduction (%) Slight M: 0%
[2]; 25 µM, 24 h
  Dead Worms (%) F: 0%
  Motor Activity Reduction (%) Significant F: 0%
  Motor Activity Reduction (%) Slight F: 0%
  Dead Worms (%) M: 0%
  Motor Activity Reduction (%) Significant M: 0%
  Motor Activity Reduction (%) Slight M: 0%
[2]; 25 µM, 48 h
  Dead Worms (%) F: 0%
  Motor Activity Reduction (%) Significant F: 0%
  Motor Activity Reduction (%) Slight F: 0%
  Dead Worms (%) M: 0%
  Motor Activity Reduction (%) Significant M: 0%
  Motor Activity Reduction (%) Slight M: 0%
[2]; 25 µM, 72 h
  Dead Worms (%) F: 0%
  Motor Activity Reduction (%) Significant F: 0%
  Motor Activity Reduction (%) Slight F: 0%
  Dead Worms (%) M: 0%
  Motor Activity Reduction (%) Significant M: 0%
  Motor Activity Reduction (%) Slight M: 0%
[2]; 25 µM, 96 h
  Dead Worms (%) F: 0%
  Motor Activity Reduction (%) Significant F: 0%
  Motor Activity Reduction (%) Slight F: 0%
  Dead Worms (%) M: 0%
  Motor Activity Reduction (%) Significant M: 0%
  Motor Activity Reduction (%) Slight M: 0%
[2]; 50 µM, 24 h
  Dead Worms (%) F: 0%
  Motor Activity Reduction (%) Significant F: 0%
  Motor Activity Reduction (%) Slight F: 0%
  Dead Worms (%) M: 0%
  Motor Activity Reduction (%) Significant M: 0%
  Motor Activity Reduction (%) Slight M: 0%
[2]; 50 µM, 48 h
  Dead Worms (%) F: 0%
  Motor Activity Reduction (%) Significant F: 0%
  Motor Activity Reduction (%) Slight F: 0%
  Dead Worms (%) M: 0%
  Motor Activity Reduction (%) Significant M: 0%
  Motor Activity Reduction (%) Slight M: 0%
[2]; 50 µM, 72 h
  Dead Worms (%) F: 0%
  Motor Activity Reduction (%) Significant F: 0%
  Motor Activity Reduction (%) Slight F: 0%
  Dead Worms (%) M: 0%
  Motor Activity Reduction (%) Significant M: 0%
  Motor Activity Reduction (%) Slight M: 0%
[2]; 50 µM, 96 h
  Dead Worms (%) F: 0%
  Motor Activity Reduction (%) Significant F: 0%
  Motor Activity Reduction (%) Slight F: 0%
  Dead Worms (%) M: 0%
  Motor Activity Reduction (%) Significant M: 0%
  Motor Activity Reduction (%) Slight M: 0%
[2]
  activity against S. mansoni adult worms (in words): did not present biological activity against the S. mansoni parasite
[3]
  effect on J774A.1 cell viability (in words): did not reduce cell viability at the same concentrations

## CCCCOC(=O)/C=C/C=C/c1cc(OC)c(OC)c(OC)c1 [Compound 19A]
[1]
  effect on NIH-3T3 cell viability (in words): did not exert significant effects on mammalian cell viability at the tested concentrations
  Emax at 800 µg/mL: < 50%
[2]; 25 µM, 24 h
  Dead Worms (%) F: 0%
  Motor Activity Reduction (%) Significant F: 0%
  Motor Activity Reduction (%) Slight F: 0%
  Dead Worms (%) M: 0%
  Motor Activity Reduction (%) Significant M: 0%
  Motor Activity Reduction (%) Slight M: 0%
[2]; 50 µM, 24 h
  Dead Worms (%) F: 0%
  Motor Activity Reduction (%) Significant F: 0%
  Motor Activity Reduction (%) Slight F: 0%
  Dead Worms (%) M: 0%
  Motor Activity Reduction (%) Significant M: 0%
  Motor Activity Reduction (%) Slight M: 0%
[2]; 50 µM, 48 h
  Dead Worms (%) F: 0%
  Motor Activity Reduction (%) Significant F: 0%
  Motor Activity Reduction (%) Slight F: 0%
  Dead Worms (%) M: 0%
  Motor Activity Reduction (%) Significant M: 0%
  Motor Activity Reduction (%) Slight M: 0%
[2]; 50 µM, 72 h
  Dead Worms (%) F: 0%
  Motor Activity Reduction (%) Significant F: 0%
  Motor Activity Reduction (%) Slight F: 0%
  Dead Worms (%) M: 0%
  Motor Activity Reduction (%) Significant M: 0%
  Motor Activity Reduction (%) Slight M: 0%
[2]; 50 µM, 96 h
  Dead Worms (%) F: 0%
  Motor Activity Reduction (%) Significant F: 0%
  Motor Activity Reduction (%) Slight F: 0%
  Dead Worms (%) M: 0%
  Motor Activity Reduction (%) Significant M: 0%
  Motor Activity Reduction (%) Slight M: 0%
[2]
  activity against S. mansoni adult worms (in words): loss of biological activity against S. mansoni
[3]
  effect on J774A.1 cell viability (in words): did not reduce cell viability at the same concentrations
